Measurements as given in ChEMBL document CHEMBL1909046, “DrugMatrix in vitro pharmacology data”.

Tests used:
[1] = DRUGMATRIX: Glutamate, AMPA radioligand binding (ligand: [3H] AMPA); assay type: cell membranes, Rattus norvegicus, Wistar, Cerebral cortex, Membrane; settings: Not Active = under 50% inhibition at 10 µM
[2] = biological target: T1, Muscarinic acetylcholine receptor M5 (Homo sapiens, UniProt P08912); assay type: cell membranes, CHO-K1, Membrane; settings: cho-k1; further: in other assays of this panel Not Active means under 50% inhibition at 10 µM
T1 sequence (P08912 whole entry): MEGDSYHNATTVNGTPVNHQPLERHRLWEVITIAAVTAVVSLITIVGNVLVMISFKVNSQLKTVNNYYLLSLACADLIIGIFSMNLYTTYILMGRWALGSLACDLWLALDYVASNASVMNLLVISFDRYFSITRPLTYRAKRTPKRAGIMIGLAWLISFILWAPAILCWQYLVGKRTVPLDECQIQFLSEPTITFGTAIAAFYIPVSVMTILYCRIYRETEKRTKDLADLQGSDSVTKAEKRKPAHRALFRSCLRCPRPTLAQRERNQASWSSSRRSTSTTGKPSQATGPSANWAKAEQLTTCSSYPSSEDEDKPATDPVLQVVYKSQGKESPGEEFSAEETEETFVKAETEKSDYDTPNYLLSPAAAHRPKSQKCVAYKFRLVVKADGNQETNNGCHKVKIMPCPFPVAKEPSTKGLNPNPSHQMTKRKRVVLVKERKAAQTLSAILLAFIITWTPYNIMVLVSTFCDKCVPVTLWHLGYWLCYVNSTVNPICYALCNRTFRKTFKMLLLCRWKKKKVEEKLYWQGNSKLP

[3] = DRUGMATRIX: GABAA, Chloride Channel, TBOB radioligand binding (ligand: [3H] TBOB); assay type: cell membranes, Rattus norvegicus, Wistar, Cerebral cortex, Membrane; settings: Not Active = under 50% inhibition at 10 µM
[4] = DRUGMATRIX: Purinergic P2X radioligand binding (ligand: [3H] alpha, beta-Methylene-ATP); assay type: cell membranes, Oryctolagus cuniculus, New Zealand albino, Urinary bladder, Membrane; settings: Not Active = under 50% inhibition at 10 µM
[5] = DRUGMATRIX: Nicotinic Acetylcholine radioligand binding (ligand: [125I] Epibatidine); assay type: cell membranes, Membrane; settings: imr-32; Not Active = under 50% inhibition at 10 µM
[6] = DRUGMATRIX: Interleukin IL-1 radioligand binding (ligand: [125I] interleukin 1beta); assay type: cell membranes, Membrane; settings: nih3t3; Not Active = under 50% inhibition at 10 µM
[7] = biological target: 5-hydroxytryptamine receptor 4 (Cavia porcellus, UniProt O70528); assay type: cell membranes, Dunkin-Hartley, Striatum, Membrane; further: in other assays of this panel Not Active means under 50% inhibition at 10 µM
Cytochrome P450 1A2 = biological target: T2, Cytochrome P450 1A2 (Homo sapiens, UniProt P05177); settings: bti-tn-5b1-4; further: in other assays of this panel Not Active means under 50% inhibition at 10 µM
T2 sequence (P05177 whole entry): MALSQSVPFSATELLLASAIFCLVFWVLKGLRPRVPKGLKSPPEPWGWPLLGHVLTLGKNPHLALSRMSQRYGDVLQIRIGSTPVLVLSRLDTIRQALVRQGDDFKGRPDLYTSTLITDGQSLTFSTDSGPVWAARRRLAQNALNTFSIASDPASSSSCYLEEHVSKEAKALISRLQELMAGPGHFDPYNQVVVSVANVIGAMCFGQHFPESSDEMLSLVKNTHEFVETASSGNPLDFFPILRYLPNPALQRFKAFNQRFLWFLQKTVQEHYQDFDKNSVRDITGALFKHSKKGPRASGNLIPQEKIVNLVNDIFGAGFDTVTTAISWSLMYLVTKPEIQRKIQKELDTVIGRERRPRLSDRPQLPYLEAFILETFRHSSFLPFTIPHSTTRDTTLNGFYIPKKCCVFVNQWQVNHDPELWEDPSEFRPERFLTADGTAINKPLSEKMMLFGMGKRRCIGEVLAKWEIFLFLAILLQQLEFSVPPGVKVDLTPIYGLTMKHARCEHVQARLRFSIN

5-hydroxytryptamine receptor 4, sequence (O70528 whole entry): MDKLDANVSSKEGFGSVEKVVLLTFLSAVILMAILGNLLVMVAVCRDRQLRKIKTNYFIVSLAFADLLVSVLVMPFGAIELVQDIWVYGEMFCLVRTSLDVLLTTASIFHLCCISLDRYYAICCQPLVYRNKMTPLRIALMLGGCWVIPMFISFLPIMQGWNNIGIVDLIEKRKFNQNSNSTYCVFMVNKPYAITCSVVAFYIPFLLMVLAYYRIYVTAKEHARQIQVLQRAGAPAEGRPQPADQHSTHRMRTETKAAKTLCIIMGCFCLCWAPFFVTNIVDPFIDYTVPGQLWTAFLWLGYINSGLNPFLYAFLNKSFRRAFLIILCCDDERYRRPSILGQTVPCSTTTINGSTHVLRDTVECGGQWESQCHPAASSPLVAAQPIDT

CCC1=C(C)CN(C(=O)NCCc2ccc(S(=O)(=O)NC(=O)N[C@H]3CC[C@H](C)CC3)cc2)C1=O [GLIMEPIRIDE]
Not Active: IC50 [1] | Ki [1] | IC50 [2] | IC50 [3] | Ki [3] | IC50 [4] | Ki [4] | IC50 [5] | Ki [5] | IC50 [6] | Ki [6] | IC50 [7] | IC50 (Cytochrome P450 1A2) | Ki (Cytochrome P450 1A2)

O=C(O)CCCc1cccs1
Not Active: IC50 [1] | Ki [1] | IC50 [2] | IC50 [3] | Ki [3] | IC50 [4] | Ki [4] | IC50 [5] | Ki [5] | IC50 [6] | Ki [6] | IC50 [7] | IC50 (Cytochrome P450 1A2) | Ki (Cytochrome P450 1A2)

Cc1ccc(C)c(OCCCC(C)(C)C(=O)O)c1 [GEMFIBROZIL]
Not Active: IC50 [1] | Ki [1] | IC50 [2] | IC50 [3] | Ki [3] | IC50 [4] | Ki [4] | IC50 [5] | Ki [5] | IC50 [6] | Ki [6] | IC50 [7] | IC50 (Cytochrome P450 1A2) | Ki (Cytochrome P450 1A2)

NNCCc1ccccc1 [PHENELZINE]
Not Active: IC50 [1] | Ki [1] | IC50 [2] | IC50 [3] | Ki [3] | IC50 [4] | Ki [4] | IC50 [5] | Ki [5] | IC50 [6] | Ki [6] | IC50 [7] | IC50 (Cytochrome P450 1A2) | Ki (Cytochrome P450 1A2)

O=C(O)CCNC(=O)c1ccc(/N=N/c2ccc(O)c(C(=O)O)c2)cc1 [BALSALAZIDE]
Not Active: IC50 [1] | Ki [1] | IC50 [2] | IC50 [3] | Ki [3] | IC50 [4] | Ki [4] | IC50 [5] | Ki [5] | IC50 [6] | Ki [6] | IC50 [7] | IC50 (Cytochrome P450 1A2) | Ki (Cytochrome P450 1A2)

C[S+](C)[O-] [DIMETHYL SULFOXIDE]
Not Active: IC50 [1] | Ki [1] | IC50 [2] | IC50 [3] | Ki [3] | IC50 [4] | Ki [4] | IC50 [5] | Ki [5] | IC50 [6] | Ki [6] | IC50 [7] | IC50 (Cytochrome P450 1A2) | Ki (Cytochrome P450 1A2)

O=C(c1ccccc1F)N1CCC(Cc2ccccc2)CC1
Not Active: IC50 [1] | Ki [1] | IC50 [2] | IC50 [3] | Ki [3] | IC50 [4] | Ki [4] | IC50 [5] | Ki [5] | IC50 [6] | Ki [6] | IC50 [7] | IC50 (Cytochrome P450 1A2) | Ki (Cytochrome P450 1A2)

COc1cc(OC)c(C(=O)CCCN2CCCC2)c(OC)c1 [BUFLOMEDIL]
Not Active: IC50 [1] | Ki [1] | IC50 [2] | IC50 [3] | Ki [3] | IC50 [4] | Ki [4] | IC50 [5] | Ki [5] | IC50 [6] | Ki [6] | IC50 [7] | IC50 (Cytochrome P450 1A2) | Ki (Cytochrome P450 1A2)

COC(=O)Nc1nc2cc(C(=O)c3ccc(F)cc3)ccc2[nH]1 [FLUBENDAZOLE]
Not Active: IC50 [1] | Ki [1] | IC50 [2] | IC50 [3] | Ki [3] | IC50 [4] | Ki [4] | IC50 [5] | Ki [5] | IC50 [6] | Ki [6] | IC50 [7] | IC50 (Cytochrome P450 1A2) | Ki (Cytochrome P450 1A2)

COc1ccnc(C[S+]([O-])c2nc3ccc(OC(F)F)cc3[nH]2)c1OC (stereo not drawn) [PANTOPRAZOLE]
Not Active: IC50 [1] | Ki [1] | IC50 [2] | IC50 [3] | Ki [3] | IC50 [4] | Ki [4] | IC50 [5] | Ki [5] | IC50 [6] | Ki [6] | IC50 [7] | IC50 (Cytochrome P450 1A2) | Ki (Cytochrome P450 1A2)

CCc1ccc(CCOc2ccc(CC3SC(=O)NC3=O)cc2)nc1 (stereo not drawn) [PIOGLITAZONE]
Not Active: IC50 [1] | Ki [1] | IC50 [2] | IC50 [3] | Ki [3] | IC50 [4] | Ki [4] | IC50 [5] | Ki [5] | IC50 [6] | Ki [6] | IC50 [7] | IC50 (Cytochrome P450 1A2) | Ki (Cytochrome P450 1A2)

CC[C@H]1[C@@H]2C[C@H]3[C@@H]4N(C)c5ccccc5[C@]45C[C@@H]([C@@H]2[C@H]5O)N3[C@@H]1O [AJMALINE]
Not Active: IC50 [1] | Ki [1] | IC50 [2] | IC50 [3] | Ki [3] | IC50 [4] | Ki [4] | IC50 [5] | Ki [5] | IC50 [6] | Ki [6] | IC50 [7] | IC50 (Cytochrome P450 1A2) | Ki (Cytochrome P450 1A2)

CNC1=Nc2ccc(Cl)cc2C(c2ccccc2)=[N+]([O-])C1 [CHLORDIAZEPOXIDE]
Not Active: IC50 [1] | Ki [1] | IC50 [2] | IC50 [3] | Ki [3] | IC50 [4] | Ki [4] | IC50 [5] | Ki [5] | IC50 [6] | Ki [6] | IC50 [7] | IC50 (Cytochrome P450 1A2) | Ki (Cytochrome P450 1A2)

Cc1cccc(C)c1NC(=O)C1CCCCN1C (stereo not drawn) [MEPIVACAINE]
Not Active: IC50 [1] | Ki [1] | IC50 [2] | IC50 [3] | Ki [3] | IC50 [4] | Ki [4] | IC50 [5] | Ki [5] | IC50 [6] | Ki [6] | IC50 [7] | IC50 (Cytochrome P450 1A2) | Ki (Cytochrome P450 1A2)

CC1=NN(c2ccccc2)C(=O)C1 [EDARAVONE]
Not Active: IC50 [1] | Ki [1] | IC50 [2] | IC50 [3] | Ki [3] | IC50 [4] | Ki [4] | IC50 [5] | Ki [5] | IC50 [6] | Ki [6] | IC50 [7] | IC50 (Cytochrome P450 1A2) | Ki (Cytochrome P450 1A2)

CC(C)C[C@H]1C(=O)N2CCC[C@H]2[C@]2(O)O[C@](NC(=O)[C@@H]3C=C4c5cccc6[nH]cc(c56)C[C@H]4N(C)C3)(C(C)C)C(=O)N12 [ERGOCRYPTINE]
Not Active: IC50 [1] | Ki [1] | IC50 [2] | IC50 [3] | Ki [3] | IC50 [4] | Ki [4] | IC50 [5] | Ki [5] | IC50 [6] | Ki [6] | IC50 [7] | IC50 (Cytochrome P450 1A2) | Ki (Cytochrome P450 1A2)

Cc1cc(O)cc(C)c1Cl [CHLOROXYLENOL]
Not Active: IC50 [1] | Ki [1] | IC50 [2] | IC50 [3] | Ki [3] | IC50 [4] | Ki [4] | IC50 [5] | Ki [5] | IC50 [6] | Ki [6] | IC50 [7] | IC50 (Cytochrome P450 1A2) | Ki (Cytochrome P450 1A2)

CCOC(=O)c1ncn2c1CN(C)C(=O)c1cc(F)ccc1-2 [FLUMAZENIL]
Not Active: IC50 [1] | Ki [1] | IC50 [2] | IC50 [3] | Ki [3] | IC50 [4] | Ki [4] | IC50 [5] | Ki [5] | IC50 [6] | Ki [6] | IC50 [7] | IC50 (Cytochrome P450 1A2) | Ki (Cytochrome P450 1A2)

COBALTOUS CHLORIDE
Not Active: IC50 [1] | Ki [1] | IC50 [2] | Ki [2] | IC50 [3] | Ki [3] | IC50 [4] | Ki [4] | IC50 [5] | Ki [5] | IC50 [6] | Ki [6] | IC50 [7] | Ki [7] | IC50 (Cytochrome P450 1A2) | Ki (Cytochrome P450 1A2)
